In ChEMBL document CHEMBL5053553, “Structure-activity relationship around PI-2620 highlights the importance of the nitrogen atom position in the tricyclic core” (Bioorg Med Chem, 2021) one finds IC50 data, which are given here for 15 compounds.

The target of one assay is Microtubule-associated protein tau (Homo sapiens, UniProt P10636). Nature of the assay: Displacement of [3H]PI-2620 from Tau in human brain homogenate incubated for 60 mins by radioligand binding assay. It is filed as tissue-based. For orientation: Loss of bound radioactivity is the signal in a displacement assay; it reports binding, not function.
Chain of Microtubule-associated protein tau (P10636 whole entry): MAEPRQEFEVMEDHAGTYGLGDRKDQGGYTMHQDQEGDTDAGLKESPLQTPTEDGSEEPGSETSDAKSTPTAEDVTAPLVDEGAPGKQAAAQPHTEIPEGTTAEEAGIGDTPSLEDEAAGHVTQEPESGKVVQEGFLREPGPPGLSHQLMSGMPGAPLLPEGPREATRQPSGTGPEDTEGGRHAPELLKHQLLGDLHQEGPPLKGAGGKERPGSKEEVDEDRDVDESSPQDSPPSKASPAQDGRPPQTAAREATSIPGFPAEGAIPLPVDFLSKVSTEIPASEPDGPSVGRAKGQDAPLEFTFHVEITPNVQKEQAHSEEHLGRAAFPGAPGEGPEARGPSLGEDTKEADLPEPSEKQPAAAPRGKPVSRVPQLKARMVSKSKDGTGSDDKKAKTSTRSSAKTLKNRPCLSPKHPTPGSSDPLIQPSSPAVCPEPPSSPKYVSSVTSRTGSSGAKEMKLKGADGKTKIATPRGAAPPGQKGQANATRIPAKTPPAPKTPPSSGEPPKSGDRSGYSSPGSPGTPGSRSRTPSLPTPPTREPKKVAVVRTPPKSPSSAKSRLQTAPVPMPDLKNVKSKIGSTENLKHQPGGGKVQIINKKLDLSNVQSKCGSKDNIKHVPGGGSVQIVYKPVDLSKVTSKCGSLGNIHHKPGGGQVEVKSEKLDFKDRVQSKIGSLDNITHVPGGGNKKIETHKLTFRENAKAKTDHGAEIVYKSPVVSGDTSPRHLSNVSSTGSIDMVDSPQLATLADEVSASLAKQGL
In turn, `Fc1cc(-c2cc3[nH]c4ccncc4c3cn2)ccn1` gave an IC50 of 82 nM.
As to `Fc1cc(-c2ccc3c(n2)[nH]c2cccnc23)ccn1`, the IC50 turned out to be 260 nM.
Regarding `Fc1cc(-c2ccc3c(n2)[nH]c2ncccc23)ccn1`, the IC50 was found to be 310 nM.
Consider `Fc1ncccc1-c1ccc2c(n1)[nH]c1ccncc12`, for which the IC50 was determined as 15.5 nM.
Same read-out and setting: for `Fc1ncccc1-c1cnc2c(c1)[nH]c1ccncc12` the value was 344 nM; for `Fc1ncccc1-c1ccc2c(c1)[nH]c1ccncc12`, 3.5 nM; for `Fc1ncccc1-c1ccc2c(n1)[nH]c1cnccc12`, 70 nM.
Consider `Fc1cc(-c2ccc3c(c2)[nH]c2ccncc23)ccn1`, for which the half-inhibitory concentration (IC50) was determined as 3.1 nM.
On the same count and under the same terms, for `Fc1cc(-c2ccc3c(n2)[nH]c2cnccc23)ccn1` the value was 36 nM; for `Fc1cc(-c2ccc3c(n2)[nH]c2ccncc23)ccn1`, 4.9 nM; for `Fc1cc(-c2cnc3c(c2)[nH]c2ccncc23)ccn1`, 116 nM.
On the same count and under the same terms, for `Fc1cc(-c2nc3[nH]c4ccncc4c3s2)ccn1` the value was 18 nM; for `Fc1ncccc1-c1ccc2c(n1)[nH]c1ncccc12`, more than 1000 nM.
On the same count and under the same terms, for `Fc1ncccc1-c1cc2[nH]c3ccncc3c2cn1` the value was 732 nM.
`Fc1ncccc1-c1ccc2c(n1)[nH]c1cccnc12` yielded an IC50 of 559 nM.

The target in a further assay is T1, Amine oxidase [flavin-containing] A (Mus musculus, UniProt Q64133).
T1 sequence (Q64133 whole entry): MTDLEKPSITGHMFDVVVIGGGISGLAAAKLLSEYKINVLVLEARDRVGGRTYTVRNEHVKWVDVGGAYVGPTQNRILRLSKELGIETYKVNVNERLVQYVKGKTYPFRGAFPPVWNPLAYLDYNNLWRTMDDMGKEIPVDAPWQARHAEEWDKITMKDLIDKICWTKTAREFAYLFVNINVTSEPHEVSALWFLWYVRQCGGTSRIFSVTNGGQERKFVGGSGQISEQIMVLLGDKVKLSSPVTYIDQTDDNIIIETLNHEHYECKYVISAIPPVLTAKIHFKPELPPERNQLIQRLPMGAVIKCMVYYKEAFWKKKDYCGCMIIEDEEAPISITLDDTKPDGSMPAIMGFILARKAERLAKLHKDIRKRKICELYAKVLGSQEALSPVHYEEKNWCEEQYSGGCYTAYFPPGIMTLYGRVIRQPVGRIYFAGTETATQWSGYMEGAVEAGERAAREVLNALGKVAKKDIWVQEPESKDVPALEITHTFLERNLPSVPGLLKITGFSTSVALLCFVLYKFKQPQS
The assay is described as follows: Displacement of [18F]-FEH from MAO-A in mouse brain homogenate incubated for 60 mins by imaging analysis. It is filed as tissue-based.
As to `Fc1cc(-c2cc3[nH]c4ccncc4c3cn2)ccn1`, the IC50 was more than 1000 nM.
Still for that read-out and setting: for `Fc1ncccc1-c1ccc2c(n1)[nH]c1ccncc12` the value was more than 1000 nM.
On the same count and under the same terms, for `Fc1ncccc1-c1cnc2c(c1)[nH]c1ccncc12` the value was more than 1000 nM; for `Fc1ncccc1-c1ccc2c(c1)[nH]c1ccncc12`, 7.8 nM.
Still for that read-out and setting: for `Fc1cc(-c2ccc3c(n2)[nH]c2ccncc23)ccn1` the value was more than 1000 nM; for `Fc1cc(-c2cnc3c(c2)[nH]c2ccncc23)ccn1`, more than 1000 nM.
For the compound `Fc1cc(-c2nc3[nH]c4ccncc4c3s2)ccn1`, the IC50 is more than 1000 nM.
In turn, `Fc1ncccc1-c1cc2[nH]c3ccncc3c2cn1` returned an IC50 of more than 1000 nM.

Usually IC50 stands for the concentration at which inhibition is half-maximal. A lower IC50 goes with greater potency.
